In US20160175284A1, “ESTROGEN RECEPTOR MODULATORS AND USES THEREOF” (Genentech, Inc., priority 2014, published 2016):

target: T1, estrogen receptor alpha (ESR1) in MCF7 breast cancer cells (Homo sapiens, UniProt P03372); experiment: Breast Cancer Cell ERa High Content Fluorescence Imaging Assay (F10); format: cell-based; settings: 4 hours, plateau of the maximal effect, DMSO and 5 nM Fulvestrant define 0% and 100% changes in ESR1
T1 construct: endogenous in cells; host or cells: MCF7 breast cancer cells
T1 sequence (P03372 1-595): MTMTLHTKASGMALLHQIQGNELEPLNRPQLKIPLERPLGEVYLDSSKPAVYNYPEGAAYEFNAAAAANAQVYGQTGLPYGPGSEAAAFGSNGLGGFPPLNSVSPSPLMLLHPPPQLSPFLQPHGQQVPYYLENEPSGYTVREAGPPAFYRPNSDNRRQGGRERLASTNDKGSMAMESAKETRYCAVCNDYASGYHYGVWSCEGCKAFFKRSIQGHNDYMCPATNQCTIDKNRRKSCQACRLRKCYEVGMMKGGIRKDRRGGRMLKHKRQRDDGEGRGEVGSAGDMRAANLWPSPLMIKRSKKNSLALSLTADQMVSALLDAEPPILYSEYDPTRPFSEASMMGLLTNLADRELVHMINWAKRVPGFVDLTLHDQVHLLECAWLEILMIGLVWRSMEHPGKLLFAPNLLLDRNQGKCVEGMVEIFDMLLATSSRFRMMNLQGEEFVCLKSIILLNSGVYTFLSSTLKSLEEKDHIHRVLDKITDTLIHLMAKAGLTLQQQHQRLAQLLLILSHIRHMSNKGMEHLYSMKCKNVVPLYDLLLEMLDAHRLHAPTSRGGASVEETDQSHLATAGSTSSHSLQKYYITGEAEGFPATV
Method: Breast Cancer Cell ERa High Content Fluorescence Imaging Assay (F10)
Cell plates were incubated at 37° C., for 4 hours. Fixation and permeabilization were carried out using a Biotek EL406 plate washer and dispenser as follows. […] Samples were incubated 30 minutes. Well contents was aspirated and 50 ul/well of Phosphate Buffered Saline (PBS) containing 0.5% w/v bovine serum albumen, 0.5% v/v Triton X-100 (Antibody Dilution Buffer) was added to each well. Samples were incubated for 30 minutes. Well contents were aspirated and washed 3 times with 100 ul/well of PBS. Immunofluorescence staining of estrogen receptor alpha (ESR1) was carried out using a Biotek EL406 plate washer and dispenser as follows. […] Samples were incubated for 2 hours at room temperature. Samples were washed 4 times with 100 ul/well of PBS. […] Samples were incubated for 2 hours at room temperature. Samples were washed 3 times with 100 ul/well of PBS using a Biotek EL406. Quantitative fluorescence imaging of ESR1 was carried out using a Cellomics Arrayscan V (Thermo). […] Channel 1 (DNA stain) was used to define the nuclear region (Circ). […] Data analysis was carried out using Genedata Screener Software, with DMSO and 5 nM Fulvestrant treated samples being used to define the 0% and 100% changes in ESR1. The “Robust Fit” method was used to define the inflexion point of curve (EC50) and the plateau of the maximal effect (Sinf).

For CC1=C(c2ccc(F)cc2Cl)[C@@H](c2ccc(OCCN3CC(CF)C3)cc2)Oc2ccc(O)cc21 [Example 40, (2R)-3-(2-chloro-4-fluoro-phenyl)-2-[4-[2-[3-(fluoromethyl)azetidin-1-yl]ethoxy]phenyl]-4-methyl-2H-chromen-6-ol], which “ER-alpha MCF7 HCS Sinf (%)” value is on record?
Its value is −98%.

CC1=C(c2cc(F)ccc2F)[C@@H](c2ccc(OCCN3CC(CF)C3)cc2)Oc2ccc(O)cc21 [Example 42, (2R)-3-(2,5-difluorophenyl)-2-[4-[2-[3-(fluoromethyl)azetidin-1-yl]ethoxy]phenyl]-4-methyl-2H-chromen-6-ol] was tested. Which “ER-alpha MCF7 HCS Sinf (%)” value did it give?
Its value is −94%.

With CC1=C(c2cccc(O)c2)C(c2ccc(OCCN3CC(CF)C3)cc2)Oc2cc(Cl)c(O)cc21 (centres unmarked) [Example 26, 7-Chloro-2-(4-(2-(3-(fluoromethyl)azetidin-1-yl)ethoxy)phenyl)-3-(3-hydroxyphenyl)-4-methyl-2H-chromen-6-ol] as the molecule, how does the “ER-alpha MCF7 HCS Sinf (%)” value read?
The value was −93%.

How did the “ER-alpha MCF7 HCS Sinf (%)” value turn out when CC1=C(c2ccc(CO)cc2)C(c2ccc(OCCN3CC(CF)C3)cc2)Oc2ccc(O)cc21 (centres unmarked) [Example 16, 2-(4-(2-(3-(Fluoromethyl)azetidin-1-yl)ethoxy)phenyl)-3-(4-(hydroxymethyl)phenyl)-4-methyl-2H-chromen-6-ol] was run?
Its value is −99%.

With CC1=C(c2ccc(NS(C)(=O)=O)cc2)C(c2ccc(OCCN3CC(CF)C3)cc2)Oc2ccc(O)cc21 (centres unmarked) [Example 13, N-(4-(2-(4-(2-(3-(Fluoromethyl)azetidin-1-yl)ethoxy)phenyl)-6-hydroxy-4-methyl-2H-chromen-3-yl)phenyl)methanesulfonamide] as the molecule, how does the “ER-alpha MCF7 HCS Sinf (%)” value read?
Its value is −68%.

Which “ER-alpha MCF7 HCS Sinf (%)” value does the source give for CC1=C(c2cccc(CO)c2)C(c2ccc(OCCN3CC(CF)C3)cc2)Oc2ccc(O)cc21 (centres unmarked) [Example 17, 2-(4-(2-(3-(Fluoromethyl)azetidin-1-yl)ethoxy)phenyl)-3-(3-(hydroxymethyl)phenyl)-4-methyl-2H-chromen-6-ol] here?
Its value is −101%.

For CC1=C(c2ccc(F)cc2C)C(c2ccc(OCCN3CC(CF)C3)cc2)Oc2ccc(O)cc21 (centres unmarked) [Example 6, 3-(4-Fluoro-2-methylphenyl)-2-(4-(2-(3-(fluoromethyl)azetidin-1-yl)ethoxy)phenyl)-4-methyl-2H-chromen-6-ol], which “ER-alpha MCF7 HCS Sinf (%)” value is on record?
Its value is −96%.

Which “ER-alpha MCF7 HCS Sinf (%)” value does the source give for CC1=C(c2cccc(F)c2F)C(c2ccc(OCCN3CC(CF)C3)cc2)Oc2ccc(O)cc21 (centres unmarked) [Example 4, 3-(2,3-Difluorophenyl)-2-(4-(2-(3-(fluoromethyl)azetidin-1-yl)ethoxy)phenyl)-4-methyl-2H-chromen-6-ol] here?
The value was −98%.

For CC1=C(c2cccc(Cl)c2)[C@H](c2ccc(OCCN3CC(CF)C3)cc2)Oc2ccc(O)cc21 [Example 37, (S)-3-(3-chlorophenyl)-2-(4-(2-(3-(fluoromethyl)azetidin-1-yl)ethoxy)phenyl)-4-methyl-2H-chromen-6-ol], which “ER-alpha MCF7 HCS Sinf (%)” value is on record?
The value was −98%.

For CC1=C(c2cccc(Cl)c2)[C@@H](c2ccc(OCCN3CC(CF)C3)cc2)Oc2ccc(O)cc21 [Example 36, (R)-3-(3-chlorophenyl)-2-(4-(2-(3-(fluoromethyl)azetidin-1-yl)ethoxy)phenyl)-4-methyl-2H-chromen-6-ol], which “ER-alpha MCF7 HCS Sinf (%)” value is on record?
The value was −95%.

How did the “ER-alpha MCF7 HCS Sinf (%)” value turn out when CC(=O)Nc1ccc(C2=C(C)c3cc(O)ccc3OC2c2ccc(OCCN3CC(CF)C3)cc2)cc1 (centres unmarked) [Example 11, N-(4-(2-(4-(2-(3-(Fluoromethyl)azetidin-1-yl)ethoxy)phenyl)-6-hydroxy-4-methyl-2H-chromen-3-yl)phenyl)acetamide] was run?
Its value is −93%.
